The values below come from US12577247B2 (BUGWORKS RESEARCH, INC., priority 2021, dated 2026).

Some results are limits rather than exact numbers.

The target in assay [1] is T1, A2B receptor (Homo sapiens, UniProt P29275).
T1 sequence (P29275 1-332): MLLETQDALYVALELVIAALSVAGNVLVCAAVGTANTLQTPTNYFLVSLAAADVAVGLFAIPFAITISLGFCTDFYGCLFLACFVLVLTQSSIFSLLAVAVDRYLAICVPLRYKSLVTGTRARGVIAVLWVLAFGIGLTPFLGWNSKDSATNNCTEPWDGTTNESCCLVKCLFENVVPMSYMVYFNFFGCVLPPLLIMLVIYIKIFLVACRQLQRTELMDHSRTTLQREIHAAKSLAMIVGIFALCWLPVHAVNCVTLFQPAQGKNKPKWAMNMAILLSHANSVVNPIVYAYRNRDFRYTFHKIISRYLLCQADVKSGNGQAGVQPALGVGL
The assay can be described thus: A2bR antagonism IC50, cAMP TR-FRET (Lance Ultra) in HEK-293 cells, NECA as agonist. The following applies: HEK-293 cells expressing A2B receptor; agonist NECA 30 nM (EC90); inhibition of cAMP. The format is cell-based. More on the design: host or cells: HEK-293. In general terms: In TR-FRET formats the signal depends on donor and acceptor labels being close together.

For assay [2], the target named is T2, A2A receptor (Homo sapiens, UniProt P29274).
T2 construct: host or cells: HEK-293
T2 sequence (P29274 whole entry): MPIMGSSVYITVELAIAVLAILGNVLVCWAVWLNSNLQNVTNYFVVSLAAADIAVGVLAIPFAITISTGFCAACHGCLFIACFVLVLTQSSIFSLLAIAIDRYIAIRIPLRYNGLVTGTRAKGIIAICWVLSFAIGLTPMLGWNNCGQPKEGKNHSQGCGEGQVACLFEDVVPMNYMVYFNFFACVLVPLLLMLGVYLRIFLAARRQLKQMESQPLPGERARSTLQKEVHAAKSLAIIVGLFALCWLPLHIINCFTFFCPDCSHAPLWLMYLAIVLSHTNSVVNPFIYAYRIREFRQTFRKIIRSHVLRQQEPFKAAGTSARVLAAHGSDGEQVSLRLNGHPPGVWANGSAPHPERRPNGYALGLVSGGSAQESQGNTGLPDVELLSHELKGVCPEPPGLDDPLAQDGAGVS
The assay can be described thus: A2aR antagonism IC50, cAMP TR-FRET in HEK-293 cells, high concentration of adenosine (30 μM).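 Also: compounds added 10 min before adenosine, then 30 min stimulation at room temperature in buffer with 100 µM rolipram and 30 µM EHNA, signal read 1 h after detection reagents.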 The settings on record: HEK-293 cells expressing A2A receptor, agonist adenosine 30 μM, 2% HSA, inhibition of cAMP. The format is cell-based.

Assay [3] addresses T2, A2A receptor. The assay can be described thus: A2aR antagonism IC50, cAMP TR-FRET (Lance Ultra) in HEK-293 cells, NECA as agonist.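 Also: compounds tested from 10 µM down to 0.08 nM in buffer with Rolipram at room temperature, TR-FRET cAMP signal read 1 h after adding Eu-cAMP tracer and ULight anti-cAMP.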 It counts as cell-based. The settings on record: A2AR IC50 (nM) (@5 nM NECA), HEK-293 cells expressing A2A receptor; agonist NECA 5 nM (EC90); inhibition of cAMP.
Description: Adenosine A2A receptors and Adenosine A2B receptors induce the production of cAMP when activated/stimulated by an agonist like adenosine or 5′-(N-Ethylcarboxamido) adenosine (NECA). A Time-Resolved Fluorescence Energy Transfer (TR-FRET) assay was used to show the inhibition of this cAMP production in HEK cells upon treatment with compounds of the Formula I of the present disclosure.
HEK-293 cells expressing A2A receptor (#ES-011-C) or A2B receptor (#ES 013-C) were obtained from PerkinElmer. Cells were maintained in DMEM medium supplemented with 10% FBS and 200 μg/mL of G418 at 37° C. and 5% CO2. The cells were cultured in antibiotic free medium for a period of 16-20 hours prior to the assay. All subsequent steps of the assay are performed at room temperature (22-24° C.). The cells were harvested at about 80% confluency by gentle flushing with PBS, recovered by centrifugation and resuspended in stimulation buffer at the concentration of 5.0×10^6 cells/mL.
The assays were conducted in a stimulation buffer containing 1×DMEM, 5 mM HEPES, 0.1% BSA stabilizer and 20-30 μM Rolipram. Serial dilutions of compounds were made in stimulation buffer to achieve a final concentration of high micromolar (10 μM to 0.08 nM) in the reaction volume of 10 μL. The total reaction volume was 10 μL (5 μL of cells, 2.5 μL of antagonist and 2.5 μL of agonist). The stimulation was ended, and the reaction completed by adding 5 μL of 4× Eu-cAMP tracer working solution and 5 μL of 4× ULight-anti-cAMP working solution. The TR-FRET signal was measured after 1-hour incubation using a Tecan M1000 reader.
Assay [4] concerns the target T1, A2B receptor. The assay can be described thus: A2bR antagonism IC50, cAMP TR-FRET in HEK-293 cells, high concentration of adenosine (30 μM).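 Also: compounds preincubated 10 min with cells, then adenosine stimulation 30 min at room temperature in buffer with Rolipram 100 µM and EHNA 30 µM, TR-FRET read after 1 h.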 The following applies: A2BR IC50 (nM) (@30 μM Adenosine), HEK-293 cells expressing A2B receptor; agonist adenosine 30 μM; 2% HSA; inhibition of cAMP.
Protocol: A Time-Resolved Fluorescence Energy Transfer (TR-FRET) assay was used to show the inhibition of this cAMP production in HEK cells upon treatment with compounds of the Formula I of the present disclosure.
HEK-293 cells expressing A2A receptor (#ES-011-C) or A2B receptor (#ES 013-C) were obtained from PerkinElmer. Cells were maintained in DMEM medium supplemented with 10% FBS and 200 μg/mL of G418 at 37° C. and 5% CO2. The cells were cultured in antibiotic free medium for a period of 16-20 hours prior to the assay. All subsequent steps of the assay are performed at room temperature (22-24° C.). […] About 1500 cells per well were pre-incubated for 10 minutes with the compounds of the present invention before adding the agonist Adenosine at a high concentration (30 μM) for a total stimulation time of 30 minutes. […] The assays were conducted in a stimulation buffer containing 1×DMEM, 5 mM HEPES, 2% Human serum albumin (HSA), 100 μM Rolipram and 30 μM erythro-9-(2-hydroxy-3-nonyl) adenine (EHNA). Serial dilutions of compounds were made in stimulation buffer to achieve a final concentration of high micromolar in a reaction volume of 10 μL. The total reaction volume was 10 μL (5 μL of cells, 2.5 μL of antagonist and 2.5 μL of agonist). […] The stimulation was ended, and the reaction completed by adding 5 μL of 4× Eu-cAMP tracer working solution and 5 μL of 4× ULight-anti-cAMP working solution. The TR FRET signal was measured after 1-hour incubation using a Tecan M1000 or a PerkinElmer Victor Nivo plate reader.
The mark [5] stands for this setting: read-out: A2AR IC50 (nM) (@30 μM Adenosine).

On to `Cc1nn2c(N)c(C#N)c(NCCc3cccc(CO)n3)nc2c1Cl` [Example 33, 7-amino-3-chloro-5-((2-(6-(hydroxymethyl)pyridin-2-yl)ethyl)amino)-2-methylpyrazolo[1,5-a]pyrimidine-6-carbonitrile], for which the IC50 (as a rule, the concentration needed to halve the response being measured) was 0.97 nM at A2B receptor [1], 206 nM at A2A receptor [2] (setting [5]), 0.38 nM at A2A receptor [3] and 1420 nM at A2B receptor [4].
For `Cc1nn2c(N)c(C#N)c(NCCc3cccc(C4(CO)CC4)n3)nc2c1Cl` [Example 34, 7-amino-3-chloro-5-((2-(6-(1-(hydroxymethyl)cyclopropyl)pyridin-2-yl)ethyl)amino)-2-methylpyrazolo[1,5-a]pyrimidine-6-carbonitrile], the IC50 at A2B receptor [1] is 6 nM; on A2A receptor [2] (setting [5]), 160 nM; at A2A receptor [3] it was 0.4 nM.
The like results for `Cc1nn2c(N)c(C#N)c(NCCc3ccn(C(C)(C)CO)n3)nc2c1Cl` [Example 36, 7-amino-3-chloro-5-((2-(1-(1-hydroxy-2-methylpropan-2-yl)-1H-pyrazol-3-yl)ethyl)amino)-2-methylpyrazolo[1,5-a]pyrimidine-6-carbonitrile] were, in that order, 22 nM, 250 nM and 0.8 nM.
With `Cc1nn2c(N)c(C#N)c(NCCc3ccn(C4(CO)CC4)n3)nc2c1C` [Example 55, 7-amino-5-((2-(1-(1-(hydroxymethyl)cyclopropyl)-1H-pyrazol-3-yl)ethyl)amino)-2,3-dimethylpyrazolo[1,5-a]pyrimidine-6-carbonitrile], the IC50 at A2B receptor [1] worked out at 8.6 nM; at A2A receptor [2] (setting [5]), 250 nM; on A2A receptor [3], 0.74 nM; at A2B receptor [4], 3790 nM.
In the case of `Cc1nn2c(N)c(C#N)c(NCCc3nc(C4(CO)CC4)cs3)nc2c1Cl` [Example 61, 7-amino-3-chloro-5-((2-(4-(1-(hydroxymethyl)cyclopropyl)thiazol-2-yl)ethyl)amino)-2-methylpyrazolo[1,5-a] pyrimidine-6-carbonitrile], the IC50 at A2B receptor [1] is 24 nM; on A2A receptor [2] (A2AR IC50 (nM) (@30 μM Adenosine)) it was 574 nM; at A2A receptor [3], below 1 nM.
Turning to `CCc1c(C)nn2c(N)c(C#N)c(NCCc3cccc(C)n3)nc12` [Example 17, 7-Amino-3-ethyl-2-methyl-5-((2-(6-methylpyridin-2-yl)ethyl)amino) pyrazolo[1,5-a]pyrimidine-6-carbonitrile], the IC50 at A2B receptor [1] is 0.87 nM; on A2A receptor [2] (setting [5]), 260 nM; at A2A receptor [3], 0.15 nM; at A2B receptor [4] it was 2380 nM.
On to `CCc1c(C(F)F)nn2c(N)c(C#N)c(NCCc3ccn(C(C)(C)CO)n3)nc12` [Example 48, 7-amino-2-(difluoromethyl)-3-ethyl-5-((2-(1-(1-hydroxy-2-methylpropan-2-yl)-1H-pyrazol-3-yl)ethyl)amino) pyrazolo[1,5-a]pyrimidine-6-carbonitrile], for which the IC50 came out at 51 nM on A2B receptor [1], 7660 nM on A2A receptor [2] (setting [5]) and 2.2 nM at A2A receptor [3].
Consider `CCc1cccc(CCNc2nc3c(C)c(C)nn3c(N)c2C#N)n1` [Example 40, 7-amino-5-((2-(6-ethylpyridin-2-yl)ethyl)amino)-2,3-dimethyl pyrazolo [1,5-a] pyrimidine-6-carbonitrile], for which the IC50 at A2B receptor [1] was 3.6 nM; on A2A receptor [2] (setting [5]), 260 nM; on A2A receptor [3], below 0.1 nM; at A2B receptor [4], 2380 nM.
The corresponding values for `CCc1c(C)nn2c(N)c(C#N)c(NCCc3cccc(C4(CO)CC4)n3)nc12` [Example 50, 7-amino-3-ethyl-5-((2-(6-(1-(hydroxymethyl)cyclopropyl)pyridin-2-yl)ethyl)amino)-2-methylpyrazolo[1,5-a] pyrimidine-6-carbonitrile] are 3.6 nM, 2160 nM, 0.2 nM and 2370 nM.
The like results for `Cc1nn2c(N)c(C#N)c(NCCc3ccn(C4CCC4CN)n3)nc2c1Cl` (centres unmarked) [Example 95, 7-amino-5-((2-(1-(2-(aminomethyl)cyclobutyl)-1H-pyrazol-3-yl)ethyl)amino)-3-chloro-2-methylpyrazolo[1,5-a]pyrimidine-6-carbonitrile] were, in that order, 53 nM, 112 nM, 1.2 nM and 1060 nM.
The corresponding values for `CCc1c(C(F)F)nn2c(N)c(C#N)c(NCCc3ccn(C4(CO)CC4)n3)nc12` [Example 58, 7-amino-2-(difluoromethyl)-3-ethyl-5-((2-(1-(1-(hydroxymethyl)cyclopropyl)-1H-pyrazol-3-yl)ethyl)amino) pyrazolo[1,5-a]pyrimidine-6-carbonitrile] are 4.7 nM, 756 nM, 0.22 nM and 12200 nM.
On to `CCc1c(C)nn2c(N)c(C#N)c(NCCc3ccn(C4CCC4CO)n3)nc12` (racemic) [Example 77, (+−)-7-amino-3-ethyl-5-((2-(1-(2-(hydroxymethyl)cyclobutyl)-1H-pyrazol-3-yl)ethyl)amino)-2-methylpyrazolo[1,5-a]pyrimidine-6-carbonitrile], for which the IC50 came out at 2 nM at A2B receptor [1], 81 nM on A2A receptor [2] (setting [5]), 0.1 nM on A2A receptor [3] and 700 nM on A2B receptor [4].
Turning to `Cc1nn2c(N)c(C#N)c(NCCc3cccc(C(C)(C)CO)n3)nc2c1Cl` [Example 65, 7-amino-3-chloro-5-((2-(6-(1-hydroxy-2-methylpropan-2-yl)pyridin-2-yl)ethyl)amino)-2-methylpyrazolo[1,5-a]pyrimidine-6-carbonitrile], the results for the IC50 on A2B receptor [1], on A2A receptor [2] (setting [5]) and on A2A receptor [3] were 27 nM, 227 nM and below 1 nM, respectively.
In the case of `Cc1nn2c(N)c(C#N)c(NCCc3cccc(C4CC4CO)n3)nc2c1C` (centres unmarked) [Example 51, 7-amino-5-((2-(6-(2-(hydroxymethyl)cyclopropyl)pyridin-2-yl)ethyl)amino)-2,3-dimethylpyrazolo[1,5-a]pyrimidine-6-carbonitrile], the IC50 was 2.1 nM at A2B receptor [1], 348 nM at A2A receptor [2] (setting [5]), 0.17 nM at A2A receptor [3] and 1290 nM on A2B receptor [4].
As for `Cc1nn2c(N)c(C#N)c(NCCc3cccc(C4CC4CO)n3)nc2c1Cl` (centres unmarked) [Example 38, 7-amino-3-chloro-5-((2-(6-(2-(hydroxymethyl)cyclopropyl)pyridin-2-yl)ethyl)amino)-2-methylpyrazolo[1,5-a]pyrimidine-6-carbonitrile], the IC50 worked out at 4.4 nM at A2B receptor [1], 178 nM at A2A receptor [2] (setting [5]) and 0.1 nM on A2A receptor [3].
As to `CCc1c(C)nn2c(N)c(C#N)c(NCCc3cccc(CO)n3)nc12` [Example 45, 7-amino-3-ethyl-5-((2-(6-(hydroxymethyl)pyridin-2-yl)ethyl)amino)-2-methylpyrazolo[1,5-a] pyrimidine-6-carbonitrile], the IC50 was found to be 2.9 nM at A2B receptor [1], 935 nM on A2A receptor [2] (setting [5]), 0.58 nM on A2A receptor [3] and 650 nM on A2B receptor [4].
The corresponding values for `Cc1nn2c(N)c(C#N)c(NCCc3cc(C)n(C4(CO)CC4)n3)nc2c1C` [Example 86, 7-amino-5-((2-(1-(1-(hydroxymethyl)cyclopropyl)-5-methyl-1H-pyrazol-3-yl)ethyl)amino)-2,3-dimethylpyrazolo[1,5-a]pyrimidine-6-carbonitrile] are 19 nM, 43 nM, 0.2 nM and 2550 nM.
The like results for `Cc1nn2c(N)c(C#N)c(NCCc3cccc(C4(CO)CC4)n3)nc2c1C` [Example 49, 7-amino-5-((2-(6-(1-(hydroxymethyl)cyclopropyl)pyridin-2-yl)ethyl)amino)-2,3-dimethylpyrazolo[1,5-a]pyrimidine-6-carbonitrile] were, in that order, 6 nM, 635 nM, 0.3 nM and 4260 nM.
The corresponding values for `CCc1c(C)nn2c(N)c(C#N)c(NCCc3ccn(C4CCCC4CO)n3)nc12` (centres unmarked) [Example 115, 7-amino-3-ethyl-5-((2-(1-(2-(hydroxymethyl)cyclopentyl)-1H-pyrazol-3-yl)ethyl)amino)-2-methylpyrazolo[1,5-a]pyrimidine-6-carbonitrile] are 9 nM, 117 nM, 0.3 nM and 829 nM.
On to `CCc1c(C)nn2c(N)c(C#N)c(NCCc3ccn(C(C)(C)CO)n3)nc12` [Example 32, 7-amino-3-ethyl-5-((2-(1-(1-hydroxy-2-methylpropan-2-yl)-1H-pyrazol-3-yl)ethyl)amino)-2-methylpyrazolo[1,5-a]pyrimidine-6-carbonitrile], for which the IC50 turned out to be 7.3 nM on A2B receptor [1], 452 nM at A2A receptor [2] (setting [5]), 0.5 nM at A2A receptor [3] and 2130 nM on A2B receptor [4].
